Source: patent publication US6239130A, “Phosphodiesterase 4-inhibiting diazepinoindolones” (Warner-Lambert Company, priority 1997, dated 2001)

Test system: PDE4 enzyme of human origin
Assay: PDE4-inhibiting activity on an enzyme preparation obtained from the U937 cell line
Assay type: biochemical
Description: In the case of the PDE4 enzymes, this value is compared with that of rolipram, a specific PDE4 inhibitor. […] Measurement of the enzyme activity of the different types of PDE, and especially of the PDE4 enzymes, is then carried out according to a method adapted from W. J. Thompson, ibidem.

| Structure (SMILES) | IC50 |
| --- | --- |
| Cc1cc2c3c(c1)C(c1ccccc1)=NC(n1cnc4ccccc4c1=O)C(=O)N3CC2 (stereo not shown) [Example 18, 3(9-Methyl-3-oxo-4H-quinazolin-3-yl)-1-phenyl-6,7-dihydro-3H-[1,4]diazepino[6,7,1-hi]indol-4one] | 823 nM |
| Cc1cc2c3c(c1)C(c1ccccc1)=N[C@@H](n1c(C)nc4cnccc4c1=O)C(=O)N3CC2 [Example 19, (3S)-3-(2-Methyl-4-oxo-4H-pyrido[3,4-d]-pyrimidin-3-yl)-9-methyl-1-phenyl-6,7-dihydro-3H-[1,4]diazepino[6,7,1-hi]indol-1-one] | 193 nM |
| Cc1ccc2nc(C)n(C3N=C(c4ccccc4)c4cc([N+](=O)[O-])cc5c4N(CC5)C3=O)c(=O)c2c1 (stereo not shown) [Example 22, 3-(2,6-Dimethyl-4-oxo-4H-quinazolin-3-yl)-9-nitro-1-phenyl-6,7-dihydro-3H-[1,4]diazepino-[6,7,1-hi]indol-4-one] | 1730 nM |
| Cc1ccc2c(=O)n(C3N=C(c4ccccc4)c4cc([N+](=O)[O-])cc5c4N(CC5)C3=O)c(C)nc2c1 (stereo not shown) [Example 23, 3-(2,7-Dimethyl-4-oxo-4H-quinazolin-3-yl)-9-nitro-1-phenyl-6,7-dihydro-3H-[1,4]diazepino-[6,7,1-hi]indol-4-one] | 497 nM |
| Cc1cccc2c(=O)n(C3N=C(c4ccccc4)c4cc([N+](=O)[O-])cc5c4N(CC5)C3=O)c(C)nc12 (stereo not shown) [Example 24, 3-(2,8-Dimethyl-4-oxo-4H-quinazolin-3-yl)-9-nitro-1-phenyl-6,7-dihydro-3H-[1,4]diazepino-[6,7,1-hi]indol-4-one] | 30600 nM |
| Cc1cc(C)c2nc(C)n(C3N=C(c4ccccc4)c4cc([N+](=O)[O-])cc5c4N(CC5)C3=O)c(=O)c2c1 (stereo not shown) [Example 25, 3(2,6,8-Trimethyl-4-oxo-4H-quinazolin-3-yl)-9-nitro-1-phenyl-6,7-dihydro-3H-[1,4]diazepino[6,7,1-hi]indol-4-one] | > 100000 nM |
| Cc1cc(Br)c2nc(C)n(C3N=C(c4ccccc4)c4cc([N+](=O)[O-])cc5c4N(CC5)C3=O)c(=O)c2c1 (stereo not shown) [Example 26, 3-(8-Bromo-2,6-dimethyl-4-oxo-4H-quinazolin-3-yl)-9-nitro-1-phenyl-6,7-dihydro-3H-[1,4]diazepino-[6,7,1-hi]indol-4-one] | 90600 nM |
| Cc1nc2ccccc2c(=O)n1[C@@H]1N=C(c2ccccc2)c2cc(N)cc3c2N(CC3)C1=O [Example 28, (3S)-9-Amino-3-(2-methyl-4oxo-4H-quinazolin-3-yl)-1-phenyl-6,7-dihydro-3H-[1,4]diazepino[6,7,1-hi]indol-4-one] | 5 nM |
| COC(=O)c1ccc2c(=O)n(C3N=C(c4ccccc4)c4cc(N)cc5c4N(CC5)C3=O)c(C)nc2c1 (stereo not shown) [Example 28A, Methyl 3-(9-amino-4-oxo-1-phenyl-3,4,6,7-tetrahydro-[1,4]diazepino[6,7,1-hi]indol-3-yl)-2-methyl-4-oxo-3,4-dihydroquinazoline-7-carboxylate] | 5 nM |
| COC(=O)c1ccc2c(=O)n(C3N=C(c4ccccc4)c4cc(N)cc5c4N(CC5)C3=O)c(C)nc2c1 (stereo not shown) [Example 28B] | 3 nM |
| COC(=O)c1ccc2c(=O)n(C3N=C(c4ccccc4)c4cc(N)cc5c4N(CC5)C3=O)c(C)nc2c1 (stereo not shown) [Example 28C] | 70 nM |
| Cc1nc2cc(C(=O)O)ccc2c(=O)n1C1N=C(c2ccccc2)c2cc(N)cc3c2N(CC3)C1=O (stereo not shown) [Example 28D, 3-(9-Amino-4oxo-1-phenyl-3,4,6,7-tetrahydro[1,4]diazepino[6,7,1-hi]indol-3-yl)-2-methyl-4-oxo-3,4-dihydroquinazoline-7-carboxylic acid] | 9 nM |
| Cc1nc2ccccc2c(=O)n1C1N=C(c2ccccc2)c2cc(N)cc3c2N(CC3)C1=O (stereo not shown) [Example 29, 9-Amino-3-(2-methyl-4-oxo-4H-quinazolin-3-yl)-1-phenyl-6,7-dihydro-3H-[1,4]diazepino[6,7,1-hi]indol-4-one] | 13 nM |
| Cc1cccc2nc(C)n(C3N=C(c4ccccc4)c4cc(N)cc5c4N(CC5)C3=O)c(=O)c12 (stereo not shown) [Example 30, 9-Amino-3-(2,5-dimethyl-4-oxo-4H-quinazolin-3-yl)-1-phenyl-6,7-dihydro-3H-[1,4]diazepino[6,7,1-hi]indol-4-one] | 8 nM |
| Cc1ccc2nc(C)n(C3N=C(c4ccccc4)c4cc(N)cc5c4N(CC5)C3=O)c(=O)c2c1 (stereo not shown) [Example 31, 9-Amino-3-(2,6dimethyl-4-oxo-4H-quinazolin-^3-yl)-1-phenyl-6,7-dihydro-3H-[1,4]diazepino[6,7,1-hi]indol-4-one] | 87 nM |
| Cc1cccc2c(=O)n(C3N=C(c4ccccc4)c4cc(N)cc5c4N(CC5)C3=O)c(C)nc12 (stereo not shown) [Example 32, 9-Amino-3-(2,8-dimethyl-4-oxo-4H-quinazolin-3-yl)-l1-phenyl-6,7-dihydro-3H-[1,4]diazepino[6,7,1-hi]indole-4-one] | 55 nM |

| Structure (SMILES) | IC50 |
| --- | --- |
| Cc1cc(C)c2nc(C)n(C3N=C(c4ccccc4)c4cc(N)cc5c4N(CC5)C3=O)c(=O)c2c1 (stereo not shown) [Example 33, 9-Amino-3-(2,6,8-trimethyl-4-oxo-4H-quinazolin-3-yl)-1-phenyl-6,7-dihydro-3H-[1,4]diazepino[6,7,1-hi]indol-4-one] | 155 nM |
| Cc1nc2cnccc2c(=O)n1C1N=C(c2ccccc2)c2cc(N)cc3c2N(CC3)C1=O (stereo not shown) [Example 34, 9-Amino-3-(2-methyl-4-oxo-4H-pyrido[3,4-d]pyrimidin-3-yl)-1-phenyl-6,7-dihydro-3H-[1,4]diazepino[6,7,1-hi]indol-4-one] | 42 nM |
| Cc1nc2cccc(Cl)c2c(=O)n1C1N=C(c2ccccc2)c2cc(N)cc3c2N(CC3)C1=O (stereo not shown) [Example 34B, 9-Amino-3-(5-chloro-2-methyl-4-oxo-4H-quinazolin-3-yl)-1-phenyl-6,7-dihydro-3H-[1,4]diazepino[6,7,1-hi]indol-4-one] | 3 nM |
| Cc1cc2c3c(c1)C(c1ccccc1)=NC(n1c(C)nc4cc(C(=O)N[C@H](C(=O)O)C(C)C)ccc4c1=O)C(=O)N3CC2 (stereo partly shown) [Example 35, N-(2-methyl-3-(9-methyl-4-oxo-1-phenyl-3,4,6,7-tetrahydro[1,4]diazepino[6,7,1-hi]indol-3-yl)-4-oxo-3,4-dihydroquinazoline-7-carbonyl)valine] | 106 nM |
| Cc1cc2c3c(c1)C(c1ccccc1)=NC(n1c(C)nc4cc(C(=O)N[C@@H](Cc5ccc(O)cc5)C(=O)O)ccc4c1=O)C(=O)N3CC2 (stereo partly shown) [Example 35A, N-(2-Methyl-3-(9-methyl-4-oxo-1-phenyl-3,4,6,7-tetrahydro[1,4]diazepino[6,7,1-hi]indol-3-yl)-4-oxo-3,4-dihydroquinazoline-7-carboxyl)tyrosine] | 88 nM |
| Cc1cc2c3c(c1)C(c1ccccc1)=NC(n1c(C)nc4cc(C(=O)N[C@@H](C)C(=O)O)ccc4c1=O)C(=O)N3CC2 (stereo partly shown) [Example 35B] | 190 nM |
| Cc1cc2c3c(c1)C(c1ccccc1)=NC(n1c(C)nc4cc(C(=O)N[C@@H](Cc5ccccc5)C(=O)O)ccc4c1=O)C(=O)N3CC2 (stereo partly shown) [Example 35C, N-(2-Methyl-3-(9-methyl-4-oxo-1-phenyl-3,4,6,7-tetrahydrol[1,4]diazepino[6,7,1-hi]indol-3-yl)-4-oxo-3,4-dihydroquinazoline-7-carboxyl)phenylalanine] | 111 nM |
| Cc1cc2c3c(c1)C(c1ccccc1)=NC(n1c(C)nc4cc(C(=O)NCC(=O)O)ccc4c1=O)C(=O)N3CC2 (stereo not shown) [Example 35D, N-(2-Methyl-3-(9-methyl-4-oxo-1-phenyl-3,4,6,7-tetrahydro[1,4]diazepino[6,7,1-hi]indol-3-yl)-4-oxo-3,4-dihydroquinazoline-7-carboxyl)glycine] | 65 nM |
| Cc1cc2c3c(c1)C(c1ccccc1)=NC(n1c(C)nc4cc(C(=O)N[C@@H](CC(C)C)C(=O)O)ccc4c1=O)C(=O)N3CC2 (stereo partly shown) [Example 35E, N-(2-Methyl-3-(9-methyl-4-oxo-1-phenyl-3,4,6,7-tetrahydro[1,4]diazepino[6,7,1-hi]indol-3-yl)-4-oxo-3,4-dihydroquinazoline-7-carboxyl)leucine] | 82 nM |
| Cc1cc2c3c(c1)C(c1ccccc1)=NC(n1c(C)nc4cc(C(=O)N[C@@H](CC(=O)O)C(=O)O)ccc4c1=O)C(=O)N3CC2 (stereo partly shown) [Example 35F, N-(2-Methyl-3-(9-methyl-4-oxo-1-phenyl-3,4,6,7-tetrahydro[1,4]diazepino[6,7,1-hi]indol-3-yl)-4-oxo-3,4-dihydroquinazoline-7-carboxyl)aspartic acid] | 547 nM |
| Cc1cc2c3c(c1)C(c1ccccc1)=NC(n1c(C)nc4cc(C(=O)N5CCC[C@H]5C(=O)O)ccc4c1=O)C(=O)N3CC2 (stereo partly shown) [Example 35G, N-(2-Methyl-3-(9-methyl-4-oxo-1-phenyl-3,4,6,7-tetrahydro[1,4]diazepino[6,7,1-hi]indol-3-yl)-4-oxo-3,4-dihydroquinazoline-7-carboxyl)proline] | 291 nM |
| Cc1cc2c3c(c1)C(c1ccccc1)=NC(n1c(C)nc4cc(C(=O)N[C@@H](CCC(=O)O)C(=O)O)ccc4c1=O)C(=O)N3CC2 (stereo partly shown) [Example 35H, N-(2-Methyl-3-(9-methyl-4-oxo-1-phenyl-3,4,6,7-tetrahydro[1,4]diazepino[6,7,1-hi]indol-3-yl)-4-oxo-3,4-dihydroquinazoline-7-carboxyl)glutamic acid] | 219 nM |
| Cc1cc2c3c(c1)C(c1ccccc1)=NC(n1c(C)nc4cc(C(=O)N[C@@H](CCCCN)C(=O)O)ccc4c1=O)C(=O)N3CC2 (stereo partly shown) [Example 35I] | 120 nM |
| CCOC(=O)[C@H](Cc1ccccc1)NC(=O)c1ccc2c(=O)n(C3N=C(c4ccccc4)c4cc(C)cc5c4N(CC5)C3=O)c(C)nc2c1 (stereo partly shown) [Example 36, Ethyl 2-{[2-methyl-3-(9-methyl-4-oxo-1-phenyl-3,4,6,7-tetrahydro[1,4]diazepino[6,7,1-hi]indol-3-yl)-4-oxo-3,4-dihydroquinazolin0e-7-carbonyl]amino}-3-phenyl-(L)-propionate] | 312 nM |
| COc1ccc(C2CNC(=O)C2)cc1OC1CCCC1 (stereo not shown) [rolipram, reference compound] | 792 nM |
